The target of experiment [1] is T1, P. acnes β-ketoacyl acyl carrier protein (ACP) synthase III (KAS III) (Cutibacterium acnes, UniProt P0DW99).
T1 construct: gene fabH; wild-type P. acnes KAS III
T1 sequence (P0DW99 1-332): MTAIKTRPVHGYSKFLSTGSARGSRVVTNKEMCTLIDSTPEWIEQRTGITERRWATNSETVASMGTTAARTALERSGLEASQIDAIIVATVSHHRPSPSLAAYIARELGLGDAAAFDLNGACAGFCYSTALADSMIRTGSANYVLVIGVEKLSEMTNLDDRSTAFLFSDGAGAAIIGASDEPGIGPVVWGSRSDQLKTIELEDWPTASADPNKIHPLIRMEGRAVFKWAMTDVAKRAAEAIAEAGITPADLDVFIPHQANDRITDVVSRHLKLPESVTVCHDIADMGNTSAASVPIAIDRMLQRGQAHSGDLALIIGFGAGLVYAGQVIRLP
Type of experiment: biochemical.

A further experiment deals with T2, JNK1 (Homo sapiens, UniProt P45983).
T2 construct: gene MAPK8; C-terminal truncated form of human JNK1α1 (residues 1–364), C-terminal 6His tag
Description: tryptophan fluorescence quenching titration with purified protein. The experiment is classed as binding.

T2 sequence (P45983 1-364): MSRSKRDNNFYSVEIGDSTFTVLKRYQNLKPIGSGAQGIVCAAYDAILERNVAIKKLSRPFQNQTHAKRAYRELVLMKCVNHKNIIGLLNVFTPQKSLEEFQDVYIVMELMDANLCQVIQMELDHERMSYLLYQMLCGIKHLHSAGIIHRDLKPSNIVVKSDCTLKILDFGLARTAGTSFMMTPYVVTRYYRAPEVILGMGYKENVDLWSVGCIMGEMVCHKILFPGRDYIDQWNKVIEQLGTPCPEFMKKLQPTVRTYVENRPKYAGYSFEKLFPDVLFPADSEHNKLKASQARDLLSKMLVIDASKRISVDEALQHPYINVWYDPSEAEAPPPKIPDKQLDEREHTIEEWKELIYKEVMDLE

`O=C(CCc1ccc(O)cc1)c1c(O)cc(O)cc1O` [Phloretin, 3-(4-hydroxyphenyl)-1-(2,4,6-trihydroxyphenyl)-1-propanone]: the “% reduction of product” value in experiment [1] is > 66 % reduction of product. On JNK1, this compound displayed a Kd of 11.8 µM.

For orientation: Kd means the constant that tells how readily two partners part at equilibrium. Higher therefore signals a looser complex.

Source of the values: paper PMC6479541, “Target Proteins of Phloretin for Its Anti-Inflammatory and Antibacterial Activities Against Propionibacterium acnes-Induced Skin Infection” (Molecules, 2019).
